# Values of other authors in US20230088267A1, “Dual chamber electronic nicotine delivery system with puff duration control and timed lockout and just-in-time adaptive intervention to treat nicotine dependence in cigarette smokers” (Virginia Commonwealth University, priority 2021, published 2023).
smiles,measurement,setting,value
"CN1CCC[C@H]1c1cccnc1 [nicotine, L-nicotine]","pka of the second nitrogen atom, located in the aromatic pyridine moiety","pyridine nitrogen, protonated under acidic conditions",3.10
same,pka of the nitrogen atom in the pyrrolidine moiety,"pyrrolidine nitrogen, basic",8.01
